Read-outs that look alike come from different tables or passages of the source.

One assay addresses T1, MGL (Rattus norvegicus, UniProt Q8R431).
T1 construct: one g rat brain was homogenized; from tissue; host or cells: rat brain homogenate
T1 sequence (Q8R431 1-303): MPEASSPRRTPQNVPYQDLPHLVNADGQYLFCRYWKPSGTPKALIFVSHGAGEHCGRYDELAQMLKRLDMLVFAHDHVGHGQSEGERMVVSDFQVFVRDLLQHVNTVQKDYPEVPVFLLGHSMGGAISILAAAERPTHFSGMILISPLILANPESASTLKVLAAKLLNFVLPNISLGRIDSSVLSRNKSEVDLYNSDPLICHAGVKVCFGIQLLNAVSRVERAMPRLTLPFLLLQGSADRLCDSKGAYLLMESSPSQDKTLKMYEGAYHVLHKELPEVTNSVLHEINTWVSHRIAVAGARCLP
Put plainly: 2-AG accumulation assay in rat brain homogenate. Format: biochemical. Conditions: compound @1 μM, read-out: Rat Brain 2AG % VehCntrl (%) @1 μM. In outline: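 Rat brain homogenate was incubated with compound for 15 min at 37° C., after which CaCl2 was added to a final concentration of 10 mM. Incubation then continued for another 15 min at 37° C. in 5 mL total volume. Reactions were stopped by adding 6 mL of 2:1 chloroform/methanol. 2-AG in the organic phase was quantified by HPLC/MS.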

The test system of assay [1] is CFA-induced paw radiant heat hypersensitivity. Kind of assay: CFA-induced paw radiant heat hypersensitivity. Format: in vivo. The following applies: rat; 30 mg/kg, p.o.; last time point 300 min; group mean values, maximum % reversal at any time point. Here is the method:
Each rat was placed in a test chamber on a warm glass surface and allowed to acclimate for approximately 10 min. A radiant thermal stimulus (beam of light) was focused through the glass onto the plantar surface of each hind paw in turn. The thermal stimulus was automatically shut off by a photoelectric relay when the paw was moved or when the cut-off time was reached (20 sec for radiant heat at ˜5 amps). An initial (baseline) response latency to the thermal stimulus was recorded for each animal prior to the injection of complete Freund's adjuvant (CFA). Twenty-four hours following intraplantar CFA injection, the response latency of the animal to the thermal stimulus was re-evaluated and compared to the animal's baseline response time. […] Post-compound treatment withdrawal latency was assessed at fixed time intervals, typically 30, 60, 120, 180, and 300 min.
The percent reversal (% R) of hypersensitivity was calculated in one of two different ways: 1) using group mean values or 2) using individual animal values. […]
Method 1. For all compounds, the % R of hypersensitivity was calculated using the mean value for groups of animals at each time point according to the following formula: % reversal=[(group treatment response−group CFA response)/(group baseline response−group CFA response)]×100 Results are given for the maximum % reversal observed for each compound at any time point tested. […]

Another assay has as its target T2, mutant MGL (Homo sapiens, UniProt Q99685, L169S/L176S).
T2 construct: purified mutant MGL (mut-MGLL 11-313 L179S L186S)
T2 sequence (Q99685 1-303 L169S/L176S): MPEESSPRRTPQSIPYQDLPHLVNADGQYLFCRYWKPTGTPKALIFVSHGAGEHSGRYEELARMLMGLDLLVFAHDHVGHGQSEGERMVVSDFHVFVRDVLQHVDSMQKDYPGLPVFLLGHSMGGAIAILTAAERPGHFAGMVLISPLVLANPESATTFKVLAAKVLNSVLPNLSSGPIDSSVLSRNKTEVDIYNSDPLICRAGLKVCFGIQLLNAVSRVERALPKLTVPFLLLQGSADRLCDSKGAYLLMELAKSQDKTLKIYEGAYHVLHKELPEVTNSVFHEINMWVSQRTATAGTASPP
Put plainly: MGL ThermoFluor assay - mutant. Format: binding. In outline:
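Thermal shift binding with 0.07 mg/ml L169S/L176S MGL, 100 μM 1,8-ANS, 200 mM NaCl, 0.001% Tween-20, 50 mM PIPES pH 7.0. Heated 40–90 °C at 1 °C/min, fluorescence (em 500 nm) tracked to give Tm; Kd fitted from 11-point concentration–Tm response, qKd when stocks quantified by qNMR.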

Setting [2] is: 0.07 mg/ml mutant MGL, pH=7.0, read-out: MGL mutant ThermoFluor Kd.
The mark [3] stands for this setting: compound concentration measured by qNMR, read-out: MGL mutant ThermoFluor qKd (using qNMR conc.).

Take `Cc1c(C(=O)N2CC(C3CCN(C(=O)c4nccs4)CC3)C2)sc2cc(C(F)(F)F)ccc12` [Cpd 20, 4-(1-{[3-Methyl-6-(trifluoromethyl)-1-benzothiophen-2-yl]carbonyl}azetidin-3-yl)-1-(1,3-thiazol-2-ylcarbonyl)piperidine]: the 2-AG accumulation, percent of vehicle control at 1 µM at MGL was 728%. The “Method 1: peak % reversal” value in assay [1] is given as −6.7%. Moreover, the Kd was 1 nM at mutant MGL (setting [2]) and 1.3 nM at mutant MGL (setting [3]).

`O=C(c1nccs1)N1CCC(C2CN(C(=O)c3sc4cc(C(F)(F)F)ccc4c3Cl)C2)CC1` [Cpd 29, 4-(1-{[3-Chloro-6-(trifluoromethyl)-1-benzothiophen-2-yl]carbonyl}azetidin-3-yl)-1-(1,3-thiazol-2-ylcarbonyl)piperidine]: the 2-AG accumulation, percent of vehicle control at 1 µM at MGL stood at 800%. In addition, the “Method 1: peak % reversal” value in assay [1] turned out to be 17.9%. The results for the Kd on mutant MGL (setting [2]) and on mutant MGL (setting [3]) were 0.3 nM and 1.2 nM, respectively.

The values are drawn from US8513423B2 (Janssen Pharmaceutica, NV, priority 2010, dated 2013).
